Experimental data taken from patent US8716250B2, “Diazoxide for the treatment of Friedreich's ataxia” (Universita' Degli Studi di Bari, priority 2008, dated 2014).
“Also recorded” adds a separate entry of the source.

Key:
frataxin [1] = experiment: Quantitative real-time RT-PCR of frataxin expression in HEK 293 cells; type: cell-based, human
Experimental: The human cell line HEK 293 (Human Embryonic Kidney) grown in Dulbecco's modified Eagle's medium (DMEM, Sigma) with the addition of 10% foetal bovine serum (FBS) (v/v), glutamine 2 mM, penicillin 100 unit/ml and streptomycin 100 μg/ml is kept in an incubator at a temperature of 37° C. and 5% CO2. Preferably the HEK 293 cells, cultured on 60 mm plates at a concentration of 0.5×10^6, after at least 14 hours of growth have a 70-80% confluence. […] Extraction of the RNA from the cells is performed according to the indications contained in the QIAconnect Gene Expression (Qiagen) kit. Particularly the samples are lysed and homogenated. Ethanol is then added to the treated samples to provide ideal conditions for the bond with the silica-gel RNase membrane. In this way the RNA binds and the contaminants are washed; the pure RNA is concentrated and eluted. The concentration of the extracted RNA is determined by UV spectrophotometric method under suitable reading conditions. The reverse transcription reaction is performed with the GeneAmp RNA PCR core (Applied Biosystems) kit according to the indications provided by the manufacturer. Quantification of the reverse-transcribed product is performed using fluorescent probes capable of hybridizing and specifically pairing DNA regions of interest. The probes used according to the invention are Probe Hs 00175940_m1 and Probe Hs 99999903 ml (Applied Biosystems). Particularly the probe defined Hs 00175940_m1 represents the specific probe able to recognise and hybridize the human frataxin gene, while the probe Hs 99999903 ml recognises the human actin and is useful for normalising the mRNA values of the target. The analyzing step of the results is performed by substituting the mathematical formula 2^−ΔΔCt with the difference between the target threshold cycle in the samples treated and not treated (control) with diazoxide, normalised with the threshold cycle value of the reference gene (actin), in the case in question ΔCt=Ct Hs00175940—m1−Ct Hs99999903—m1. ΔΔCt=ΔCt(treated sample)−ΔCt(control sample) The result of the calculation 2^−ΔΔCt represents the relative quantification value. Said value permits determination of the quantity of frataxin (which represents the target) in the sample treated with diazoxide with respect to the quantity of frataxin in the sample not treated with diazoxide (which represents the control) normalised for the quantity of actin (which represents the reference or internal standard) in the same sample. For example a value of 1 is attributed to the control samples, i.e. HEK 293 cells not treated with diazoxide chosen as references.

[2] = children treated with ibedenone; cited from earlier work
frataxin [3] = experiment: Western blot analysis of frataxin in HEK 293 cells; type: cell-based, human; settings: for frataxin expression, western blot: 4 or 5 days after the initial treatment
Experimental: The human cell line HEK 293 (Human Embryonic Kidney) grown in Dulbecco's modified Eagle's medium (DMEM, Sigma) with the addition of 10% foetal bovine serum (FBS) (v/v), glutamine 2 mM, penicillin 100 unit/ml and streptomycin 100 μg/ml is kept in an incubator at a temperature of 37° C. and 5% CO2. Preferably the HEK 293 cells, cultured on 60 mm plates at a concentration of 0.5×10^6, after at least 14 hours of growth have a 70-80% confluence. […] The cells treated as described in example 1 are lysed with a lysis buffer (0.15 M NaCl, 5 mM EDTA, pH 8, 1% Triton X100, 10 mM Tris-Cl, pH 7.4) and transferred to microcentrifuge tubes. A quantity of approximately 50 μg of cell suspension is separated by electrophoresis in the presence of SDS (sodium dodecyl sulphate) at 17% (denaturing conditions). The resulting product is transferred onto nitrocellulose membranes. Identification of the presence of the target protein, i.e. the frataxin, is performed with a rabbit polyclonal primary antibody directed against said protein (Santa Cruz Biotechnology), and a goat-anti rabbit HRP secondary antibody (Pierce). The reaction was identified with enzymatic method by means of ECL plus system (Amersham).

frataxin [4] = experiment: Quantitative real-time RT-PCR of frataxin expression in immortalized lymphoblastoid cell lines of FRDA patients; type: cell-based, human; settings: FRDA patient lymphoblastoid cells, 24 hours
Experimental: Extraction of the RNA from the cells is performed according to the indications contained in the QIAconnect Gene Expression (Qiagen) kit. Particularly the samples are lysed and homogenated. Ethanol is then added to the treated samples to provide ideal conditions for the bond with the silica-gel RNase membrane. In this way the RNA binds and the contaminants are washed; the pure RNA is concentrated and eluted. The concentration of the extracted RNA is determined by UV spectrophotometric method under suitable reading conditions. The reverse transcription reaction is performed with the GeneAmp RNA PCR core (Applied Biosystems) kit according to the indications provided by the manufacturer. Quantification of the reverse-transcribed product is performed using fluorescent probes capable of hybridizing and specifically pairing DNA regions of interest. The probes used according to the invention are Probe Hs 00175940_m1 and Probe Hs 99999903 ml (Applied Biosystems). Particularly the probe defined Hs 00175940_m1 represents the specific probe able to recognise and hybridize the human frataxin gene, while the probe Hs 99999903 ml recognises the human actin and is useful for normalising the mRNA values of the target. The analyzing step of the results is performed by substituting the mathematical formula 2^−ΔΔCt with the difference between the target threshold cycle in the samples treated and not treated (control) with diazoxide, normalised with the threshold cycle value of the reference gene (actin), in the case in question ΔCt=Ct Hs00175940—m1−Ct Hs99999903—m1. ΔΔCt=ΔCt(treated sample)−ΔCt(control sample) The result of the calculation 2^−ΔΔCt represents the relative quantification value. Said value permits determination of the quantity of frataxin (which represents the target) in the sample treated with diazoxide with respect to the quantity of frataxin in the sample not treated with diazoxide (which represents the control) normalised for the quantity of actin (which represents the reference or internal standard) in the same sample. The expression level and therefore the quantity of frataxin of cells deriving from immortalized lymphoblastoid cell lines of FRDA patients treated as described in examples 2 and 3 was compared 24 hours after the treatment. […] In particular, the broken vertical line represents the threshold value above which the increase in frataxin expression can be seen. The experiment was conducted testing the cells with concentrations of diazoxide varying from 25 nM to 100 μM in combination with fixed concentrations of glucose 20 mM. The expression and therefore the quantity of frataxin in cells deriving from immortalized lymphoblastoid cell lines of FRDA patients was compared.

frataxin [5] = experiment: Western blot analysis of frataxin in cells of FRDA patients; type: cell-based, human; settings: FRDA patient cells, 24 hours after the initial treatment
Experimental: The cells treated as described in example 1 are lysed with a lysis buffer (0.15 M NaCl, 5 mM EDTA, pH 8, 1% Triton X100, 10 mM Tris-Cl, pH 7.4) and transferred to microcentrifuge tubes. A quantity of approximately 50 μg of cell suspension is separated by electrophoresis in the presence of SDS (sodium dodecyl sulphate) at 17% (denaturing conditions). The resulting product is transferred onto nitrocellulose membranes. Identification of the presence of the target protein, i.e. the frataxin, is performed with a rabbit polyclonal primary antibody directed against said protein (Santa Cruz Biotechnology), and a goat-anti rabbit HRP secondary antibody (Pierce). The reaction was identified with enzymatic method by means of ECL plus system (Amersham). […] It can be seen that the cells of the patients treated according to the invention present an evident band as expression of the quantity of frataxin present with respect to the non-treated control.

[6] = diazoxide in combination with glucose
[7] = diazoxide in combination with leucine

For `CC(C)C[C@H](N)C(=O)O` [leucine], the “frataxin expression levels, deviation with respect to the non-treated control” value (frataxin [1]; HEK 293, leucine only 10 mM, 24 hours) was “minimum deviation with respect to the non-treated control”.

In the case of `COC1=C(OC)C(=O)C(CCCCCCCCCCO)=C(C)C1=O` [ibedenone], the “benefits at neurological level” value [2] is given as “practically nil” and the “children treated presenting an improvement in some of the symptoms” value [2] is given as 85%.

In the case of `CC1=NS(=O)(=O)c2cc(Cl)ccc2N1` [diazoxide, 7-chloro-3-methyl-4H-1,2,4 benzothiadiazine 1,1-dioxide], the “frataxin expression levels, deviation from the threshold line” value (frataxin [1]; HEK 293, diazoxide 100 μM combined with leucine 10 mM, 24 hours) was “significant deviation from the threshold line”, the “increase in the quantity of frataxin with respect to the non-treated control over time” value (frataxin [1]; HEK 293, diazoxide 100 μM together with glucose 20 mM, 48 and 72 hours after the treatment) was “remains constant” and the “quantity of frataxin / frataxin expression with respect to the non-treated control” value (frataxin [1]; HEK 293, diazoxide 100 μM with glucose 20 mM, 24 hours) was “increased quantity of frataxin; also recorded: significant deviation from the threshold line”. The “frataxin expression levels, deviation from the threshold line” value (frataxin [1]; HEK 293, diazoxide only (25 nM or 100 μM without glucose), 24 hours) was “minimum deviation from the threshold line”, the “frataxin quantity (band intensity) versus control cells” value (frataxin [3]; HEK 293, cells treated as in example 1 (diazoxide 100 μM with glucose 20 mM, 24 hours)) was “greater than that of the control cells” and the “frataxin expression, western blot” value (frataxin [3]; [6]) was “maintain the increase in expression”. The “frataxin expression, western blot” value (frataxin [3]; [7]) was “maintain the increase in expression”, the “frataxin expression levels, deviation from the threshold line” value (frataxin [4]; diazoxide 100 μM combined with glucose 20 mM) was “significant deviation from the threshold line” and the “effect on frataxin expression of the combination” value (frataxin [4]; [6]) was “synergic effect”. The “effect on frataxin expression of the combination” value (frataxin [4]; [7]) was “synergic effect”, the “frataxin expression levels, deviation from the threshold line” value (frataxin [4]; some particular concentrations of diazoxide (25 nM to 100 μM tested) with glucose 20 mM) was “minimum deviation from the threshold line” and the “frataxin expression, western blot, with respect to the non-treated control” value (frataxin [5]; [6]) was “maintain the increase in expression”. For the same molecule, the “frataxin expression, western blot, with respect to the non-treated control” value (frataxin [5]; [7]) was “maintain the increase in expression”.
